{"source": "patent US20140371244A1", "about": "“METHOD FOR TREATING PROSTATE CANCER BY USE OF PHARMACEUTICAL COMPOSITION CONTAINING A3 ADENOSINE RECEPTOR AGONIST” (priority 2009, published 2014)", "key": {"[1]": {"system": "iNOS (inducible nitric oxide synthase)", "test": "NO production inhibitory activity (iNOS assay) in LPS-stimulated RAW 264.7 cells", "assay_type": "cell-based, mouse", "conditions": "LPS 1 μg/ml; for IC50: RAW 264.7 cells, 20 hours, read-out: IC50 of NO production inhibition", "description": "A test was carried out to examine the inhibitory activity of the inhibitory activity of the inventive composition on the enzyme iNOS (inducible nitric oxide synthase) whose expression increases when inflammatory reactions and traumas exist.\nSpecifically, RAW 264.7 cells (5×10^5 cells/ml) were added to a 24-well plate with 10% FBS-containing DMEM medium in an amount of 1 ml per well and cultured for 24 hours. […] After 30 minutes, 1 μg/ml of LPS was added to the cells which were then cultured in a 5% CO2 incubator at 37° C. for 20 hours (test groups). As a blank, RAW cells cultured without addition of LPS and the inventive composition were used, and as a control group, RAW cells cultured with addition of only LPS were used.\n100 μl of the supernatant of each well was taken and allowed to react with 90 μl of each of sulfanilamide solution and N-(1-naphtyl)-ethylenediamine solution. Then, each reaction product was measured for absorbance at 540 nm to determine the amount of nitrate or nitrite produced in the culture medium, and the results of the measurement are shown in FIG. 1.\nA standard curve was potted using NaNO2 solution, and the NO production inhibitory activity of each of the samples was evaluated by calculating NaNO2 concentration in each test group relative to the control group using the following equation 1 based on the measured absorbance and comparing the calculated NaNO2 concentration with that in the group treated with LPS alone. Inhibition rate (%) was calculated as nitrate concentration using the following equation, and then the IC50 value of the composition was calculated."}, "[2]": {"system": "human colorectal cancer HCT 116 cells", "test": "SRB assay, growth of HCT 116 cells", "assay_type": "cell-based", "conditions": "72 hours; for growth of HCT 116 cells: 100, 50, 25 and 12.5 μM; for IC50: SRB", "description": "In order to compare the inhibitory effect of thio-Cl-IB-MECA of the present invention on the inhibition of human colorectal cancer HCT 116 cells with the effects of other A3 adenosine receptor agonists, IB-MECA and Cl-IB-MECA, a sulforhodamine B (SRB) assay was performed.\nSpecifically, 10 μL of a solution of thio-Cl-IB-MECA in 10% dimethylsulfoxide (DMSO) was loaded in each well of a 96-well plate in triplicate at concentrations of 100, 50, 25 and 12.5 μM, thus making a test plate. Cells were diluted to a density of 5×10^4 cells/ml with 10% FBS-containing RPMI 1640 medium supplemented with antibiotics-antimycotics, and 190 μL of the cell suspension was added to each well so as to reach a total volume of 200 μL and was cultured in a 5% CO2 incubator at 37° C. for 3 days. At the same time, 190 μL of the same cell suspension was loaded into each of 16 wells or more of a fresh 96-well plate containing no sample (thio-Cl-IB-MECA) and was cultured in a 5% CO2 incubator at 37° C. for 30 minutes, thereby determining reference date. After the culture, 50 μL of 50% trichloroacetic acid (TCA) was added to each well, and the cells were fixed by culture at 4° C. for 1 hour. Then, the well plate was washed five times with tap water and dried. 100 μL of a 1% acetic acid solution containing […] sulforhodamine B (SRB) was added to each well to stain the cells, and the well plate was allowed to stand at room temperature for 1 hour. After the well plate has been washed five times with 1% acetic acid and sufficiently dried, 200 μL of 100 mM Tris-base was added to each well, and the bound staining liquid was dissolved and sufficiently shaken in a shaker. Then, the absorbance at 515 nm was measured using an ELISA microplate reader. Based on the measured absorbance, the cell viability of the test group relative to the control group was calculated using equation 2 above. Based on the viability at each concentration, the IC50 value of the test sample was calculated using TableCurve program.\nIn the cases of IB-MECA or Cl-IB-MECA, the viability of cancer cells was examined in the same manner as the case of thio-Cl-IB-MECA."}, "[3]": {"system": "Human colorectal cancer HCT116 cells", "test": "Morphological change of HCT116 cells", "assay_type": "cell-based", "conditions": "40 μM, 48 hours", "description": "Human colorectal cancer HCT116 cells were treated with 40 μM of thio-Cl-IB-MECA and cultured for 48 hours, and then the morphological change of the cells was observed.\nSpecifically, HCT116 cells were diluted with 10% FBS (Fetal Bovine Serum)-containing medium to a density of 1.0×10^6 cells per 100 mm culture dish and cultured under the conditions of 37° C. and 5% CO2, followed by washing twice with PBS (Phosphate Buffered Saline). Thio-Cl-IB-MECA was diluted to a concentration of 40 μM, and then 10 ml of the culture medium prepared in the 100 mm culture dish was added thereto and incubated for a given time. The morphology of the cells was observed as a function of treatment time and concentration (FIG. 19)."}, "NF-κB": {"system": "NF-κB", "test": "NF-κB signaling (Western blot, EMSA) in LPS-stimulated RAW 264.7 cells", "assay_type": "cell-based, mouse", "excerpt": "NF-κB is a transcription factor consisting of p65/p50 and is present in an inactivated state by binding to IκB in the cytoplasm, but when it is stimulated by, for example, LPS, it is activated by a series of processes, including the phosphorylation and degradation of IκB by IκB kinase (IKK). When NF-κB state becomes a free state, it moves into the nucleus and binds to the κB-binding site, thereby regulating the expression of genes, such as iNOS, TNF-α and IL-1β, which are involved in inflammatory reactions. Thus, the effect of the inventive composition on the NF-κB signaling system was tested by Western blot analysis and EMSA.\nEMSA was performed in order to examine whether NF-κB moves into the nucleus to bind to DNA."}}}
{"smiles": "CNC(=O)[C@H]1O[C@@H](n2cnc3c(NCc4cccc(I)c4)ncnc32)[C@H](O)[C@@H]1O", "note": "[IB-MECA]", "values": [{"measurement": "IC50", "setting": "[1]", "value": 65.7, "unit": "µM"}, {"measurement": "growth of HCT 116 cells", "setting": "[2]", "value": "concentration-dependently inhibited the growth"}, {"measurement": "IC50", "setting": "[2]", "value": 62.4, "unit": "µM"}]}
{"smiles": "CNC(=O)[C@H]1S[C@@H](n2cnc3c(NCc4cccc(I)c4)nc(Cl)nc32)[C@H](O)[C@@H]1O", "note": "[thio-Cl-IB-MECA, 2-chloro-N^6-(3-iodobenzyl)-4′-thioadenosine-5′-N-methyluronamide]", "values": [{"measurement": "production of NO", "setting": "[1]; 5, 10 and 20 μM", "value": "inhibited in a concentration-dependent manner"}, {"measurement": "IC50", "setting": "[1]", "value": 16.2, "unit": "µM"}, {"measurement": "number of the cells, HCT116", "setting": "[3]", "value": "decreased"}, {"measurement": "degradation of IκB protein", "setting": "NF-κB; 20 μM, 15 minutes after LPS", "value": "the degradation of IκB protein was inhibited"}, {"measurement": "DNA binding of NF-κB", "setting": "NF-κB; EMSA", "value": "inhibited the DNA binding of NF-κB"}, {"measurement": "protein bonding of p65 subunit of NF-κB", "setting": "NF-κB; EMSA", "value": "inhibited"}, {"measurement": "growth of HCT 116 cells", "setting": "[2]", "value": "concentration-dependently inhibited the growth"}, {"measurement": "IC50", "setting": "[2]", "value": 37.5, "unit": "µM"}]}
